Values quoted from earlier work, collected in patent US12427123B2, “Phenylephrine hydrochloride compositions and containers” (Endo Operations Limited, priority 2020, dated 2025).
Where two headings read alike, the source gives them in different places.

Experiments:
[1] = not given; remark: listed apart in the source

| solubility (chloroform) | solubility (ethanol) | solubility (ethyl ether) | solubility (water) | dose excreted unchanged in the urine ([1]; in vivo) [%] | α-phase half-life ([1]; intravenous administration, 2-compartment model, distribution from central compartment) [min] | optical stability (racemization as a function of pH) (solutions at pH 3.0 and pH 6.0) | SMILES |
| --- | --- | --- | --- | --- | --- | --- | --- |
| insoluble | freely soluble | insoluble | very soluble |  |  |  | CNC[C@H](O)c1cccc(O)c1.Cl [Phenylephrine hydrochloride] |
|  |  |  |  | 12 | < 5 | optically stable | CNC[C@H](O)c1cccc(O)c1 [phenylephrine] |
